Values after ≈ are worked out from the molar mass of the structure shown. Where two headings read alike, the source gives them in different places.
Experiments:
Assay in all cases: In vitro antimicrobial activity, two-fold agar-plate dilution method (MIC)
Format in all cases: cell-based
[1] = tested on: Bacillus subtilis ATCC 6633; settings: 37° C., 20 hours
Experimental: (§1) In vitro Antimicrobial activity was determined by the two-fold agar-plate dilution method as described below.
(§2) One loopful of an overnight culture of each test strain in Tripticase-soy broth (approximately 10^8 viable cells per ml) was streaked on heart infusion agar (HI-agar) containing graded concentrations of antimicrobial agents, and the minimal inhibitory concentration (MIC) was expressed in term of μg/ml after incubation at 37° C. for 20 hours.

Escherichia coli 31 = settings: HI-agar, 37° C., 20 hours
Experimental: as §1, §2

[2] = tested on: Staphylococcus aureus 209P JC-1; settings: HI-agar, 37° C., 20 hours
Experimental: as §1, §2

[3] = ATCC6633, HI-agar, read-out: MIC

MIC [1, 3]	MIC (Escherichia coli 31; read-out: MIC)	MIC ([2]; read-out: MIC)	MIC ([1]; HI-agar)	MIC (Escherichia coli 31)	MIC [2]	SMILES
0.78 µg/mL	6.25 µg/mL	6.25 µg/mL				CON(C(=O)Cc1cccs1)[C@@H]1C(=O)N2C(C(=O)O)=C(COC(C)=O)CS[C@H]12 [Test compound 1, Sodium 7-[N-methoxy-2-(2-thienyl)acetamido]cephalosporanate]
3.13 µg/mL (≈ 6.68 µM)	6.25 µg/mL (≈ 13.3 µM)	6.25 µg/mL (≈ 13.3 µM)				Cn1nnnc1SCC1=C(C(=O)O)N2C(=O)[C@@H](N(O)C(=O)Cc3cccs3)[C@H]2SC1 [Test compound 3, 7-[N-Hydroxy-2-(2-thienyl)acetamido]-3-(1-methyl-1H-tetrazol-5-ylthiomethyl)-3-cephem-4-carboxylic acid]
			0.78 µg/mL (≈ 1.78 µM)	1.56 µg/mL (≈ 3.57 µM)	3.13 µg/mL (≈ 7.15 µM)	CC(=O)OCC1=C(C(=O)OC(c2ccccc2)c2ccccc2)N2C(=O)C(=O)C2SC1 (stereo not drawn) [Example 2(3), benzhydryl 7-oxocephalosporanate]

Reference: patent US4369312A, “Method of producing oxo-containing azetidinone compounds” (Fujisawa Pharmaceutical Co., Ltd., priority 1980, dated 1983)
